Among the data in PubChem BioAssay (NCI) are TGI values, retold here.

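Method: 48-hour compound exposure of cells in 96-well plates, five concentrations, linear interpolation of endpoints. TGI denotes the concentration required for complete inhibition of growth.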 A value given as a limit tells only on which side of the number the result lay.

Test systems include SR leukemia; HS 578T breast; NCI-H522 lung; LOX IMVI melanoma; MALME-3M melanoma; UACC-62 melanoma; DU-145 prostate; RXF 393 renal; HCT-15 colon; UACC-257 melanoma; MDA-MB-435; HOP-92 NSCLC.
What all share (assay): NCI anticancer screen, dose series, 48 h

Turning to `COC(=O)C1=NN2c3ccccc3CN([C@@H](C)c3ccccc3)C(=O)[C@@H]2[C@H]1c1ccccc1`, the TGI in the assay with SR leukemia, in the assay on HS 578T breast, in the assay on NCI-H522 lung, in the assay on LOX IMVI melanoma, in the assay on MALME-3M melanoma and in the assay with UACC-62 melanoma was more than 100 µM throughout. Besides, the TGI in the assay on DU-145 prostate, with RXF 393 renal, with HCT-15 colon, with UACC-257 melanoma, in the assay on MDA-MB-435 and in the assay on HOP-92 NSCLC was more than 100 µM throughout.

Turning to `COc1cc2c[n+](C)c3c(c2cc1OC)Cc1cc2c(cc1-3)OCO2`, the TGI in the assay with SR leukemia, with HS 578T breast, with NCI-H522 lung, in the assay on LOX IMVI melanoma, in the assay with MALME-3M melanoma and in the assay on UACC-62 melanoma was more than 100 µM each time. Besides, the TGI in the assay on DU-145 prostate, in the assay with HCT-15 colon, in the assay with UACC-257 melanoma, in the assay with MDA-MB-435 and in the assay with HOP-92 NSCLC was more than 100 µM each time.

Take `C=CC1(C)OC2(CCN(C(=O)OCC)CC2)OC1C` (centres undefined): the TGI in the assay on SR leukemia, in the assay with HS 578T breast, in the assay on NCI-H522 lung, in the assay on LOX IMVI melanoma, in the assay with MALME-3M melanoma and with UACC-62 melanoma was more than 100 µM in each case. Besides, the TGI with DU-145 prostate, with RXF 393 renal, in the assay with HCT-15 colon, in the assay with UACC-257 melanoma, in the assay on MDA-MB-435 and in the assay on HOP-92 NSCLC was more than 100 µM in each case.

On to `CCOC(=O)C(CCc1ncnc2c1ncn2Cc1ccccc1)(CCc1ncnc2c1ncn2Cc1ccccc1)C(=O)OCC`, for which the TGI in the assay on SR leukemia, with HS 578T breast, with NCI-H522 lung, in the assay with LOX IMVI melanoma, in the assay with MALME-3M melanoma and in the assay with UACC-62 melanoma was more than 100 µM throughout. Also, the TGI with DU-145 prostate, in the assay with RXF 393 renal, in the assay on HCT-15 colon, in the assay on UACC-257 melanoma, in the assay on MDA-MB-435 and with HOP-92 NSCLC was more than 100 µM throughout.

Turning to `O=C1CC2SC(COCc3ccccc3)(CCN2Cc2ccccc2)C1` (centres undefined), the TGI with SR leukemia, with HS 578T breast, with NCI-H522 lung, in the assay on LOX IMVI melanoma, in the assay with MALME-3M melanoma and with UACC-62 melanoma was more than 100 µM throughout. The TGI in the assay on DU-145 prostate, in the assay on RXF 393 renal, in the assay with HCT-15 colon, in the assay on UACC-257 melanoma, in the assay with MDA-MB-435 and in the assay with HOP-92 NSCLC was more than 100 µM in each case.

Consider `COC1C(O)C(C)OC(OC2CCC3(C)C(CCC4C3C(O)CC3(C)C(C5=CC(=O)OC5)CCC43O)C2)C1O` (centres undefined), for which the TGI was more than 100 µM with SR leukemia; more than 100 µM with HS 578T breast; 0.251 µM with NCI-H522 lung; 0.775 µM in the assay on LOX IMVI melanoma; 0.667 µM in the assay on MALME-3M melanoma; 1.25 µM in the assay on UACC-62 melanoma. The TGI amounted to 0.173 µM with DU-145 prostate; 0.237 µM in the assay on RXF 393 renal; 1.03 µM in the assay with HCT-15 colon; 3.13 µM in the assay on UACC-257 melanoma; 1.24 µM with MDA-MB-435; 3.33 µM in the assay with HOP-92 NSCLC.

For the compound `CCOC(=O)C(Cc1ccc(N(CCCl)CCCl)cc1)NC(=O)CCCN1C(=O)CN=C(c2ccccc2)c2cc(Cl)ccc21` (centres undefined), the TGI in the assay with SR leukemia was more than 27.3 µM; with HS 578T breast, 52 µM; in the assay with NCI-H522 lung, 13.2 µM; with LOX IMVI melanoma it was 8.99 µM; in the assay with MALME-3M melanoma, 7.71 µM; with UACC-62 melanoma, 5.95 µM. For the same compound, the TGI was more than 64.7 µM in the assay on DU-145 prostate; 8.77 µM in the assay on RXF 393 renal; more than 100 µM in the assay with HCT-15 colon; 8.31 µM in the assay with UACC-257 melanoma; more than 59.5 µM with MDA-MB-435; 8.85 µM in the assay with HOP-92 NSCLC.

For `CC(=O)/C(C=Nc1c(C)n(C)n(C)c1=O)=C(/O)c1ccccc1`, the TGI with SR leukemia, in the assay on HS 578T breast, in the assay on NCI-H522 lung, in the assay on LOX IMVI melanoma, with MALME-3M melanoma and in the assay on UACC-62 melanoma was more than 50 µM each time. Besides, the TGI in the assay on DU-145 prostate, in the assay with RXF 393 renal, in the assay on HCT-15 colon, with UACC-257 melanoma, in the assay on MDA-MB-435 and in the assay on HOP-92 NSCLC was more than 50 µM throughout.

For the compound `C1CN2CCNCCN(CCN1)CC2`, the TGI in the assay on SR leukemia, with HS 578T breast, in the assay on NCI-H522 lung, in the assay on LOX IMVI melanoma, in the assay on MALME-3M melanoma and in the assay on UACC-62 melanoma was more than 100 µM each time. Further, the TGI in the assay on DU-145 prostate, with RXF 393 renal, in the assay on HCT-15 colon, in the assay on UACC-257 melanoma, in the assay on MDA-MB-435 and with HOP-92 NSCLC was more than 100 µM in each case.

Consider `COC1CC(O[C@H]2CC[C@@]3(C)[C@@H](CC[C@]4(O)[C@@H]3CC[C@]3(C)[C@@H](C(C)=O)[C@H](OC(=O)CC(C)C)[C@@H](OC(=O)c5ccccc5)[C@@]34O)C2)OC(C)C1OC1CC(OC)C(OC2OC(C)C(O)C(OC)C2O)C(C)O1` (some centres undefined), for which the TGI in the assay on SR leukemia, with HS 578T breast, with NCI-H522 lung, in the assay with LOX IMVI melanoma, in the assay with MALME-3M melanoma and in the assay with DU-145 prostate was more than 25 µM in each case. Moreover, the TGI is more than 25 µM in the assay on RXF 393 renal; more than 25 µM with HCT-15 colon; more than 25 µM with UACC-257 melanoma; more than 25 µM in the assay on MDA-MB-435; 24.8 µM in the assay on HOP-92 NSCLC.

`Clc1c2ccccc2nc2c1[nH]c1ccccc12`: the TGI is 43.6 µM in the assay on SR leukemia; more than 100 µM with HS 578T breast; more than 100 µM in the assay on NCI-H522 lung; more than 100 µM in the assay on LOX IMVI melanoma; more than 100 µM in the assay on MALME-3M melanoma; more than 100 µM in the assay on UACC-62 melanoma. For the same compound, the TGI with DU-145 prostate, in the assay on HCT-15 colon, with UACC-257 melanoma, with MDA-MB-435 and in the assay with HOP-92 NSCLC was more than 100 µM throughout.
